Assay results as given in the supplement of paper PMC10307832.

Key:
[1] = compound: O=C(NC1CCNCC1)c1n[nH]cc1NC(=O)c1c(Cl)cccc1Cl [AT-7519]; assay: relative viability (nuclei count vs DMSO), 5 days (fraction); higher = more cells survive
Outline: (§1)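 Viability was read as treated-well nuclei divided by vehicle-well nuclei, using the median across plates. Lung cancer cell lines in 1536-well plates were kept overnight at 37 °C, pinned with five √10-spaced library-drug doses, and after 5 days were Hoechst-stained, imaged at 4× and counted in MetaXpress. Plates passed only with control CV below 25% and at least one doubling.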

[2] = compound: C1=CC2=C(C=C(C(=C2N=C1)O)N=NC3=CC4=C(C=C3)C=C(C=C4)S(=O)(=O)O)S(=O)(=O)O; assay: as above
Outline: as §1

| Cell Line | relative viability ([1]; 0.01 µM) | relative viability ([1]; 0.03162 µM) | relative viability ([1]; 0.3162 µM) | relative viability ([1]; 1 µM) | relative viability ([2]; 0.08 µM) | relative viability ([2]; 0.253 µM) | relative viability ([2]; 0.8 µM) | relative viability ([2]; 2.53 µM) | relative viability ([2]; 8 µM) |
| --- | --- | --- | --- | --- | --- | --- | --- | --- | --- |
| 201T | 1.02 | 0.988 | 1.04 | 1.11 | 1.01 | 0.995 | 0.985 | 1.03 | 0.982 |
| A549 | 0.978 | 0.903 | 0.931 | 0.792 | 1.1 | 0.986 | 0.926 | 1 | 0.884 |
| A-427 | 1.11 | 1.02 | 0.944 | 0.723 | 1.05 | 0.971 | 0.936 | 0.963 | 0.842 |
| ABC-1 | 1.1 | 0.876 | 0.787 | 0.699 | 0.923 | 0.743 | 0.744 | 1.08 | 0.776 |
| BEN | 0.917 | 0.876 | 1.15 | 0.887 | 0.976 | 0.933 | 0.895 | 0.986 | 0.777 |
| CAL-12T | 0.98 | 1.06 | 0.552 | 0.256 | 1.08 | 0.986 | 0.928 | 1.09 | 0.932 |
| COR-L23 | 1.12 | 0.865 | 0.936 | 0.424 | 1.09 | 1.04 | 1 | 1.05 | 0.946 |
| COR-L 105 | 0.924 | 0.933 | 0.769 | 0.54 | 0.988 | 0.78 | 0.95 | 1.06 | 0.865 |
| Calu-6 | 1.06 | 0.943 | 1.11 | 0.593 | 1 | 1.02 | 0.962 | 1.01 | 1.01 |
| ChaGo-K-1 | 1.01 | 0.926 | 0.996 | 0.942 | 1.03 | 0.905 | 0.937 | 1.02 | 0.901 |
| EBC-1 | 0.934 | 0.885 | 0.923 | 0.645 | 1.04 | 0.933 | 0.941 | 0.99 | 1.07 |
| EKVX | 0.948 | 0.911 | 0.939 | 1.03 | 0.973 | 0.918 | 0.905 | 1.01 | 0.864 |
| EMC-BAC-2 | 0.954 | 0.934 | 0.996 | 1.11 | 0.916 | 1.02 | 1.03 | 1.01 | 0.93 |
| EPLC-272H | 0.889 | 0.84 | 0.844 | 0.761 | 1.03 | 0.901 | 0.949 | 0.879 | 0.743 |
| H3255 | 1.04 | 0.96 | 0.969 | 0.838 | 1.01 | 0.965 | 1.01 | 1.03 | 1.04 |
| HARA | 0.86 | 0.897 | 1.07 | 0.892 | 1.03 | 0.871 | 0.995 | 0.953 | 0.806 |
| HCC-15 | 1.03 | 0.911 | 0.897 | 0.754 | 1.14 | 1 | 1.03 | 0.97 | 0.963 |
| HCC-44 | 0.992 | 0.99 | 1.05 | 1.05 | 1.02 | 0.959 | 0.952 | 1.05 | 1 |
